According to US12325708B2, “Adenosine 2 receptor antagonists” (Nektar Therapeutics, priority 2019, dated 2025):

How the values were obtained:
A1 receptor = target: T1, A1 receptor (Homo sapiens, UniProt P30542); assay: Radioligand receptor binding assay, A1 receptor; conditions: cell membranes overexpressing A1 receptor, read-out: Potency Ki A1
T1 construct: purchased
T1 sequence (P30542 1-326): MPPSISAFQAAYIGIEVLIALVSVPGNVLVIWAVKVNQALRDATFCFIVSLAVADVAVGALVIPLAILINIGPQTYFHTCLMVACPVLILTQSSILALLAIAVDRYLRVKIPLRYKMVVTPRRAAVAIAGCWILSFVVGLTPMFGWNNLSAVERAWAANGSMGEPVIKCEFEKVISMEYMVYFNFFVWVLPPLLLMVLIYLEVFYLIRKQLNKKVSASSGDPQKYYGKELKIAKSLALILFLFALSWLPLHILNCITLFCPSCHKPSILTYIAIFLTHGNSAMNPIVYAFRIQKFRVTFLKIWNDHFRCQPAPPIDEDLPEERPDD
Protocol: (§1) Using conventional receptor binding assay techniques, Compounds 1-24 were assayed to determine binding activity at the A2A, A1, and A3 receptors with the results shown in Table 7.
(§2) Receptor binding affinity of Compounds 1-24 was measured using radioligand binding assays using commercially obtained cell membranes prepared from cell lines overexpressing the A2A, A1, or A3 receptors. Briefly, cell membrane preparations from cells expressing the specific receptor were mixed with the appropriate [^3H]-labeled tracer for the specific receptor and the test compound or a known inhibitor of receptor-ligand binding. Following 60 min incubation at room temperature to allow receptor-ligand complex formation, the complexes were collected by filtration, washed with 50 mM Tris HCl (pH 7.5) to remove radioligand that was not receptor-bound, and the remaining radioactivity determined by liquid scintillation counting. Specific radioligand binding was calculated for each test compound concentration and IC50 values were determined by non-linear, regression analysis. Inhibition constants (Ki) were calculated using the equation of Cheng and Prusoff using the observed IC50 of the tested compound, the concentration of radioligand employed in the assay and the experimentally determined values for the Kd of the ligand.

[1] = Brain-to-plasma ratio (B/P) after administration; format: in vivo, Sprague-Dawley rats; conditions: Sprague-Dawley, rat, oral, 2.5 mg/kg; Table 6; brain-to-plasma ratio at 1 h
From the text: A similar unexpected result was obtained when the phenyl ring present on Compound 1 was replaced with a halogen substituted pyridine. The halogen was previously introduced on the phenyl ring with the aim of blocking a possible metabolic soft-spot, with similar results observed as for Compound 1 in terms of exposure, clearance and bioavailability (Compound 10 and Compound 15). The substituted pyridine ring was designed to modulate the lipophilicity and polar surface area, as well as to address metabolic soft-spot concerns. Clearance and bioavailability parameters remain similar between substituted phenyl and pyridine (Compound 4 and Compound 14) analogs, which span a range in cLogP of 2.7-3.2. It was therefore surprising the significant improvement in exposure and clearance observed for the more lipophilic Compound 19. […] A compound is commonly deemed to be a brain penetrant if the brain-to-blood/plasma concentration ratio (B/P) is greater than 0.04 using methods as known in the art (Schaffer, Annual Reports in Medicinal Chemistry, 45:55-70, 2010).
Plasma pharmacokinetic parameters were determined following oral (PO) administration of further compounds essentially as described in Example 28 with the results shown in Table 6.

A2A receptor = target: T2, A2A receptor (Homo sapiens, UniProt P29274); assay: Radioligand receptor binding assay, A2A receptor; conditions: cell membranes overexpressing A2A receptor, read-out: Potency Ki A2A
T2 construct: purchased
T2 sequence (P29274 whole entry): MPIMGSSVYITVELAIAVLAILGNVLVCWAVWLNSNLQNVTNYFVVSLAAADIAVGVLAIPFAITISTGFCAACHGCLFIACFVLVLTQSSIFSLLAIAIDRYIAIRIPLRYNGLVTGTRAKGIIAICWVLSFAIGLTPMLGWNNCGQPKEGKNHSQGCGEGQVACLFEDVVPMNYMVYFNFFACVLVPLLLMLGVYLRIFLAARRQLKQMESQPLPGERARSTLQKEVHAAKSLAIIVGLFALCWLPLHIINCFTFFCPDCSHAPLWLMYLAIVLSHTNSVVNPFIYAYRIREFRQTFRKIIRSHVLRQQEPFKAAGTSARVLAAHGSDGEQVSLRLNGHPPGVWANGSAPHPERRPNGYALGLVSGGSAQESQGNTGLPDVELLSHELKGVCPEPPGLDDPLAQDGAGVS
Protocol: as §1, §2

[2] = Plasma pharmacokinetic parameters following intravenous (IV) or oral (PO) administration in rats; format: in vivo, Sprague-Dawley rats; conditions: male, Sprague-Dawley, rat, plasma, Table 6; for AUC / bioavailability: 2.5 mg/kg, oral (PO) administration essentially as described in Example 28; for clearance: intravenous, 0.5 mg/kg, essentially as described in Example 28; for bioavailability: po
Protocol: (§3) Adult male Sprague-Dawley rats (230-250 g) (Charles River Labs, Hollister, CA) were utilized for the study. There were 2 rats/group. All animals were food fasted overnight with water provided ad libitum at all times. Compounds 1, 4, 14 and 19 were synthesized as described in Examples 2, 17, 7, and 12, respectively, and formulated in injectable water.
(§4) The morning of each dosing, individual doses were calculated based on current body weights on the day of dosing. The jugular vein cannula (JVC) and the carotid artery cannula (CAC) were externalized, flushed with HEP/saline (10 IU/mL HEP/mL saline), plugged, and labeled to identify the jugular vein and the carotid artery. The IV group animals were dosed at 0.5 mg/kg of Compound 1, 4, 14 or 19, respectively, intravenously via the jugular vein, while the PO dose was administered 2.5 mg/kg of Compound 1, 4, 14 or 19, respectively, orally via gavage. For the IV group, immediately following the dose of test article, the dead volume of the catheter was flushed with 0.9% saline to ensure the animals received the full dose.
Approximately 0.2 mL of blood was collected per time point from JVC. Blood samples were collected at 2 (IV group only), 5, 15, 30, 60, 120, 240, 360, 420 (Compound 19 only), 480, 720 (Compound 19 only), and 1440 minutes via the CAC and transferred immediately into K2EDTA coated tubes pre-loaded 2 μl with quenching cocktail and placed on wet ice. The samples were centrifuged within 30 min after collection at 10,000 RPM for 5 minutes and the resulting plasma was separated. Plasma was transferred into microfuge tubes and placed on dry ice immediately. The plasma samples were stored at approximately −70° C. until bioanalysis.
Plasma samples were extracted by protein precipitation with acetonitrile containing 0.1% formic acid and doxepin for Compound 1 (available from Sigma-Aldrich) or SCH58261 for Compounds 4, 14 and 19 (available from Sigma-Aldrich) as an internal standard. Following vortex and centrifugation, supernatant was diluted 3-fold with water containing 0.1% formic acid and analyzed by LC-MS/MS.
Pharmacokinetic parameters (PK) were determined by non-compartmental analysis (NCA) using Phoenix 64 WinNonlin (version 8) and Dotmatics (version 5.0). Nominal doses and time points were used for the analysis.
The following PK parameters were estimated using plasma concentration-time profile of each animal with the results presented in Table 3: • AUCinf Area under the concentration-time from zero to time infinity • AUClast Area under the concentration-time from zero to time of last concentration value • F Bioavailability • CL Total body clearance • Cmax Maximum (peak) concentration • MRTlast Mean residence time to last observable concentration • Tmax Time to reach maximum or peak concentration following administration • Vss Volume of distribution at steady state
as §3, with “Compound 1 was” for “Compounds 1, 4, 14 and 19 were”, “Example 2” for “Examples 2, 17, 7, and 12, respectively,”
as §4, with “1” for “1, 4, 14 or 19, respectively,”
Approximately 0.2 mL of blood was collected per time point from JVC. […]

Row | SMILES | Ki (A1 receptor) [nM] | Kp at 1 h [1] | Ki (A2A receptor) [nM] | AUC [2] [ng·h/mL] | clearance [2] [mL/min/kg] | bioavailability [2] [%]
1 | COCCOc1ccc(N2CCN(CCN(C)c3nc(N)n4nc(-c5ncco5)nc4n3)CC2)cc1 [Compound 2, N^5-(2-{4-[4-(2-methoxyethoxy)phenyl]piperazin-1-yl}ethyl)-N^5-methyl-2-(1,3-oxazol-2-yl)[1,2,4]triazolo[1,5-a][1,3,5]triazine-5,7-diamine] | 13000 | 0.04 | 7 | 320 | 54 | 43
2 | COCCOc1cnc(N2CCN(CCN(C)c3cc4nc(-c5ncco5)nn4c(N)n3)CC2)nc1 [Compound 3, N^7-(2-{4-[5-(2-methoxyethoxy)pyrimidin-2-yl]piperazin-1-yl}ethyl)-N^7-methyl-2-(1,3-oxazol-2-yl)[1,2,4]triazolo[1,5-c]pyrimidine-5,7-diamine] | 20100 | 0.04 | 10 | 376 | 47 | 44
3 | CN(CCN1CCN(c2ccc(OCCOC(F)(F)F)cc2)CC1)c1cc2nc(-c3ncco3)nn2c(N)n1 [Compound 5, N^7-methyl-2-(1,3-oxazol-2-yl)-N^7-[2-(4-{4-[2-(trifluoromethoxy)ethoxy]phenyl}piperazin-1-yl)ethyl][1,2,4]triazolo[1,5-c]pyrimidine-5,7-diamine] | > 10000 | 0.1 | 7 | 971 | 21 | 48
4 | [2H]C([2H])([2H])N(CCN1CCN(c2ccc(OCCOC)cc2)CC1)c1cc2nc(-c3ncco3)nn2c(N)n1 [Compound 6, N^7-(2-{4-[4-(2-methoxyethoxy)phenyl]piperazin-1-yl}ethyl)-N^7-(^2H3)methyl-2-(1,3-oxazol-2-yl)[1,2,4]triazolo[1,5-c]pyrimidine-5,7-diamine] | > 4000 | 0.05 | 12 | 852 | 34 | 64
5 | [2H]C([2H])([2H])OCCOc1ccc(N2CCN(CCN(C)c3cc4nc(-c5ncco5)nn4c(N)n3)CC2)cc1 [Compound 7, N^7-methyl-N^7-{2-[4-(4-{2-[(^2H3)methyloxy]ethoxy}phenyl)piperazin-1-yl]ethyl}-2-(1,3-oxazol-2-yl)[1,2,4]triazolo[1,5-c]pyrimidine-5,7-diamine] | > 4000 | 0.07 | 13 | 1020 | 24 | 60
6 | [2H]C([2H])([2H])OCCOc1ccc(N2CCN(CCN(c3cc4nc(-c5ncco5)nn4c(N)n3)C([2H])([2H])[2H])CC2)cc1 [Compound 8, N^7-(^2H3)methyl-N^7-{2-[4-(4-{2-[(^2H3)methyloxy]ethoxy}phenyl)piperazin-1-yl]ethyl}-2-(1,3-oxazol-2-yl)[1,2,4]triazolo[1,5-c]pyrimidine-5,7-diamine] | > 4000 | 0.04 | 4 | 1200 | 22 | 63
7 | [2H]C([2H])(N1CCN(c2ccc(OCCOC)cc2)CC1)C([2H])([2H])N(C)c1cc2nc(-c3ncco3)nn2c(N)n1 [Compound 9, N^7-[2-{4-[4-(2-methoxyethoxy)phenyl]piperazin-1-yl}(^2H4)ethyl]-N^7-methyl-2-(1,3-oxazol-2-yl)[1,2,4]triazolo[1,5-c]pyrimidine-5,7-diamine] | > 4000 | 0.04 | 6 | 1170 | 23 | 65
8 | [2H]C([2H])([2H])OCCOc1ccc(N2CCN(CCN(C)c3cc4nc(-c5ncco5)nn4c(N)n3)CC2)c(F)c1 [Compound 10, N^7-{2-[4-(2-fluoro-4-{2-[(^2H3)methyloxy]ethoxy}phenyl)piperazin-1-yl]ethyl}-N^7-methyl-2-(1,3-oxazol-2-yl)[1,2,4]triazolo[1,5-c]pyrimidine-5,7-diamine] | > 10000 | 0.09 | 5.5 | 819 | 30 | 57
9 | [2H]C([2H])([2H])OCCOc1cnc(N2CCN(CCN(C)c3cc4nc(-c5ncco5)nn4c(N)n3)CC2)c(F)c1 [Compound 11, N^7-{2-[4-(3-fluoro-5-{2-[(^2H3)methyloxy]ethoxy}pyridin-2-yl)piperazin-1-yl]ethyl}-N^7-methyl-2-(1,3-oxazol-2-yl)[1,2,4]triazolo[1,5-c]pyrimidine-5,7-diamine] | 16900 |  | 2.3 | 708 | 30 | 63
10 | [2H]C([2H])([2H])OC([2H])([2H])C([2H])([2H])Oc1ccc(N2CCN(CCN(C)c3cc4nc(-c5ncco5)nn4c(N)n3)CC2)cc1 [Compound 12, N^7-methyl-N^7-(2-{4-[4-({2-[(^2H3)methyloxy](^2H4)ethyl}oxy)phenyl]piperazin-1-yl}ethyl)-2-(1,3-oxazol-2-yl)[1,2,4]triazolo[1,5-c]pyrimidine-5,7-diamine] | > 100000 | 0.03 | 4 | 1000 | 23 | 56
